Reference: US6413937B1, “Combinations for use in increasing the potency of a substrate for multidrug resistance related protein” (Dublin City University and Enterprise Ireland, priority 1996, dated 2002)

Experiments:
DLKP cell line = experiment: miniaturised in vitro colorimetric cell survival assay (acid phosphatase end-point), DLKP; assay type: cell-based, human
Description: (§1) All the results presented in this Example for the DLKP, A549 and OAW42-SR cell lines were derived using the same miniaturised in vitro calorimetric assay system. On Day 1 of the assay 1000 cells/well/100 μl were plated into 96-well plates. Cells were allowed to attach overnight and cell viability was visually assessed. […] NSAID plus chemotherapeutic drug) to be analysed were added onto the cells. The individual drugs were added separately in 50 μl quantities (4× stocks, to take into account the dilution effect of having 200 μl final volume in each well). The drugs were left on the cells for five further days (Day 7) and cell number was determined using the acid phosphatase end-point assay which uses p-nitrophenol phosphate as substrate (Martin, A. and Clynes, M. (1991) In Vitro Dev. Biol., 27A, 183-184). On Day 7 the culture medium was removed from the cells and they were washed once with phosphate buffered saline (PBS). […] After the incubation period 50 μl of 1N NaOH was added to each well to develop the colour. The plates were then read at 405 nm (reference 620 nm) on an ELISA plate-reader. […] All results are the cell survival means ±S.D. from a minimum of three experiments.

A549 cell line = experiment: miniaturised in vitro colorimetric cell survival assay (acid phosphatase end-point), A549; assay type: cell-based, human
Description: as §1

[1] = system: GST prepared from DLKP cells; experiment: total GST assay with 1-chloro-2,4-dinitrobenzene; assay type: biochemical, human
Description: The other NSAIDs were tested in a total GST assay (Habig, W. H., and Jakoby, W. B., (1981); Methods Enzymol., 77: 218-231). Total cellular GST activity was assayed, using 1-chloro-2,4-dinitrobenzene as a substrate, according to the method of Habig, W. H., and Jakoby, W. B., (1981); supra. Due to spectrophotometric interference at 340 nm, caused by the majority of the NSAIDs, the assays were all performed at 360 nm, without any apparent effect on the rate of the control reaction The results are shown in Table 5.

MRP-specific substrates = experiment: screen for enhancement of toxicity of MRP substrates by NSAIDs; assay type: cell-based; settings: summary statements
DLKP cells = experiment: Example 5 miniaturised in vitro cell toxicity assay, DLKP; assay type: cell-based, human
Description: For the monolayer cell lines miniaturised in vitro assays were used to determine drug toxicity. On Day I cells were seeded at 1×10^3 cells/well in a 96-well plate and left to attach overnight. Drug was added on Day 2, and the assay was terminated on Day 7. Cell number was then evaluated by using one of two colorimetric end-point […]: the acid phosphatase assay (Martin, A., and Clynes, M. (1991); In vitro Cell and Development Biology, 27A: 183-184) or the crystal violet dye elution assay (Martin, A., and Clynes, M. (1993); Cytotechnology, 11:49-58). All assays were performed in triplicate.

MRP pump = target: T1, MRP pump (Homo sapiens, UniProt P33527); experiment: ATP-dependent transport of [3H]LTC4 into inside-out plasma membrane vesicles from HL60ADR cells; assay type: biochemical; settings: for MRP-pump inhibitory activity: conclusion from Table 4
T1 construct: inside-out plasma membrane vesicles prepared from HL60ADR cells; endogenous in cells; host or cells: HL60ADR cells (plasma membrane vesicles)
Description: To determine if the NSAIDs were acting directly on the MRP pump the uptake of [^3H]LTC4 into inside-out plasma membrane vesicles prepared from HL60ADR cells was examined using a rapid filtration procedure (Ishikawa,T., et al. (1994); J. Biol. Chem. 269 (46); 29085-29093). ATP-dependent transport of [^3H]LTC4 into the membrane vesicles was measured by a rapid filtration method using a Millipore sampling manifold. The membrane vesicles were thawed at 37° C. before use and kept on ice. The reaction components consisted of 0.25 M sucrose/10 mM Tris.HCl pH 7.4/1 mM ATP/10 mM MgCl2/10 mM creatine phosphate/ 110 μg/ml creatine kinase and 10 nM [^3H]LTC4, with 50 μg of the inside-out vesicle preparation, in a final volume of 110 μl. This suspension was incubated at 37° C., with gentle mixing, and aliquots, 20 μl, were taken at the indicated points. Those aliquots were diluted in 1 ml of ice-cold incubation buffer before being applied to 0.22 μm Millipore GSWP nitrocellulose filters, pre-soaked in ice-cold incubation buffer, under suction. The filters were subsequently washed with 3 ml ice-cold incubation buffer, and absorbed radioactivity was measured using a scintillation counter (Beckman). In control experiments ATP was replaced with 5μ-AMP to determine the ATP-dependent transport.

DLKP-7 cells = experiment: adriamycin efflux from loaded cells, HPLC; assay type: cell-based
Description: DLKP-7 cells were seeded into 75 cm^2 flasks at 0.5×10^6 cells/10 ml ATCC medium. The cells were left for 2 days, the ATCC medium was removed and fresh medium containing adriamycin (0.5 μg/ml) was added. Following a 2 hour incubation this medium was removed, the flasks were washed twice with PBS, 10 ml ATCC medium or ATCC medium containing the test NSAID was added, and the cells were incubated for a further 4 hr. The cells were trypsinised and the pellet was frozen at −20° C. Duplicate flasks for each time point were prepared. The NSAIDs used were indomethacin 10 μg/ml and piroxicam 20 μg/ml.
The amount of adriamycin in the cells was quantified using liquid-liquid extraction and reverse-phase HPLC analysis. The frozen cell pellets were thawed and resuspended in […] of water/100 μl of 33% silver nitrate and mixed for 5 min. 300 μl of methanol, containing 1.5 μg of daunorubicin as an internal standard (IS), and 1.3 ml of acetonitrile were then added and the tubes mixed for a further 5 min. The mixture was transferred to glass tubes and kept at 4° C. for 1 hr. The tubes were then centrifuged at 1000 g for 15 min. to pellet any solid material. 1.1 ml of the supernatant was removed to HPLC autosampler vials (Labquip, Dublin, Ireland). The solvent was evaporated off at room temperature under a stream of nitrogen gas.
The extract was resuspended in 50 μl of mobile phase 1 (MP1): 32 ml of 0.1 M phosphoric acid mixed with 244 ml of ultrapure water, pH: 2.3 (adjusted upwards with a few drops of 1N potassium hydroxide) to which 124 ml of acetonitrile was added and the final mixture was degassed in a sonicating bath for 5 min. The second mobile phase (MP2) consisted of acetonitrile. The resuspended sample (20 μl) was automatically injected into the HPLC system. The HPLC system comprised a Beckman System Gold 507 autosampler, 125 pump and 166 detector. The MP was pumped through a C18 reversed-phase Prodigy 5 μm particle size ODS-3 column (Phenomenex, Macclesfield, England) (dimensions 150×4.6mm) and absorbance was measured at 253 nm. For the first 14 min. of the chromatographic run MP 1 was pumped at 0.5 ml/min. From 14 min. to 20 min. the column was switched to MP 2. At 20 min. the column was switched back to MP 1 and the flow rate increased to 1 ml/min. At 30 min. the flow rate was brought back to 0.5 ml/min. The run continued for a further 5 min. giving a total run time of 35 min. The amount of adriamycin present was quantified by measuring its peak area and the peak area of the IS. The peak area of the adriamycin was divided by the area of the IS peak and the ratio plotted against a concentration series for spiked adriamycin samples.

T1 sequence (P33527 whole entry): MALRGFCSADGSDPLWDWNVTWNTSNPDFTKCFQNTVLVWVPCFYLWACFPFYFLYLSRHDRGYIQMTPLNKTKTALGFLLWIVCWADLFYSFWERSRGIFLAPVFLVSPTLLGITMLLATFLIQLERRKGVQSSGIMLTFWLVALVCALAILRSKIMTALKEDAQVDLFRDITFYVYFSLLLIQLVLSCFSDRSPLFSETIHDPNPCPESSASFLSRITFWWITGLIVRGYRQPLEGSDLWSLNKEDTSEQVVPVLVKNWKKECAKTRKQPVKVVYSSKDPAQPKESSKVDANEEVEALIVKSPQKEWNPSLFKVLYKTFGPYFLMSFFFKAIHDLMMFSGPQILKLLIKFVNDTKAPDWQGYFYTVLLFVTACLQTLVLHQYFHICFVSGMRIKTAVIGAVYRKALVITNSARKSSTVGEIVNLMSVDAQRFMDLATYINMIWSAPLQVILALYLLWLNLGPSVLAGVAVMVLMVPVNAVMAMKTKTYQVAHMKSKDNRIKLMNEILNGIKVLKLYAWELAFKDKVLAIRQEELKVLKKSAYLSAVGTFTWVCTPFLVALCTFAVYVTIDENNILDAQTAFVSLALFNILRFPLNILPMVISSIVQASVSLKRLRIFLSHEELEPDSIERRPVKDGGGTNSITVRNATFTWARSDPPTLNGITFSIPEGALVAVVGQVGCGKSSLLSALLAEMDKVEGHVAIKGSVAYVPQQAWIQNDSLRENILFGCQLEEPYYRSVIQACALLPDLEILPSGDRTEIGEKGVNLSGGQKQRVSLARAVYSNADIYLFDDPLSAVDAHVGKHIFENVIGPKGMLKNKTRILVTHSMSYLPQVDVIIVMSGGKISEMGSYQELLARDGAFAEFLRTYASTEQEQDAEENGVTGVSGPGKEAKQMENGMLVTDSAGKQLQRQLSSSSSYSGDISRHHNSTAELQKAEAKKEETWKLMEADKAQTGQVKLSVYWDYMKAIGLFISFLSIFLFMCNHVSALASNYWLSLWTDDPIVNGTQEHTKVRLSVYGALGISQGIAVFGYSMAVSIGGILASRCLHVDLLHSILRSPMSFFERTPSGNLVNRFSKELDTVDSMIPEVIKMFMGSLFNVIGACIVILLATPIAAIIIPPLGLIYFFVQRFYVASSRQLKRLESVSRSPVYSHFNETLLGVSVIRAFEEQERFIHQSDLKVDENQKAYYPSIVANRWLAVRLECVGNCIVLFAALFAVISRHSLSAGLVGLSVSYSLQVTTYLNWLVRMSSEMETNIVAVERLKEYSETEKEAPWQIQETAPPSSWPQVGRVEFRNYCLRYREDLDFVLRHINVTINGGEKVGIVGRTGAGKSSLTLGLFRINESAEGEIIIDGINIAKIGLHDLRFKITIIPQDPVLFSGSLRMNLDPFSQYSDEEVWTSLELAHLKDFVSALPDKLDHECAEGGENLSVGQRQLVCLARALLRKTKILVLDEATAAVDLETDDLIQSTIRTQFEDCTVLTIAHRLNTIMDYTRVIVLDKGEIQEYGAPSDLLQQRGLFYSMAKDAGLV

`O=c1[nH]cc(F)c(=O)[nH]1` [5-FU, 5-flurouracil] was tested, and the “% cell survival” value (DLKP cell line; iv) 5-FU 0.5 μg/ml alone) was 66.18 ± 1.4%.
For `COc1ccc2c(c1)c(CC(=O)OCC(=O)O)c(C)n2C(=O)c1ccc(Cl)cc1` [Acemetacin, acemetacin], the “% cell survival” value (A549 cell line; viii) Acemetacin 11.50 μg/ml, alone or + Adriamycin 15 ng/ml) was 102.08 ± 8.76%, the “% cell survival” value (A549 cell line; viii) Acemetacin 19.20 μg/ml, alone or + Adriamycin 15 ng/ml) was 97.30 ± 8.46% and the “% cell survival” value (A549 cell line; viii) Acemetacin 37.50 μg/ml, alone or + Adriamycin 15 ng/ml) was 85.04 ± 10.13%. The “% Inhibition of GST” value ([1]; 0.25 mM) was 58% and the “enhancement of toxicity of MRP substrates” value (“enhancement” for short) (MRP-specific substrates) was “have been found to enhance the toxicity of MRP-specific substrates”.
For `O=C(O)Cc1ccccc1Nc1c(Cl)cccc1Cl` [Diclofenac], the “% Inhibition of GST” value ([1]; 0.75 mM) was 54%.
With `COc1cccc2c1C(=O)c1c(O)c3c(c(O)c1C2=O)C[C@@](O)(C(=O)CO)C[C@@H]3O[C@H]1C[C@H](N)[C@@H](O)[C@H](C)O1` [Epirubicin, epirubicin] the “% cell survival” value (DLKP cells; Epirubicin 1 ng/ml alone) was 69.08 ± 3.6%.
With `O=C(O)CCC(=O)c1ccc(-c2ccccc2)cc1` [Fenbufen] the “% Inhibition of GST” value ([1]; 1 mM) was 15.6%.
With `CC(C(=O)O)c1cccc(Oc2ccccc2)c1` (centres unmarked) [Fenoprofen] the “% Inhibition of GST” value ([1]; 1 mM) was 22.5%.
In the case of `O=C(O)c1ccccc1Nc1cccc(C(F)(F)F)c1` [Flufenamic Acid], the “% Inhibition of GST” value ([1]; 0.75 mM) is reported as 41.2%.
For `CC(C)Cc1ccc(C(C)C(=O)O)cc1` (centres unmarked) [Ibuprofen], the “% cell survival” value (A549 cell line; xvi) Ibuprofen 3.06 μg/ml, alone or + Adriamycin 17 ng/ml) was 100.37 ± 7.94%, the “% cell survival” value (A549 cell line; xvi) Ibuprofen 7.92 μg/ml, alone or + Adriamycin 17 ng/ml) was 96.78 ± 11.43% and the “% cell survival” value (A549 cell line; xvi) Ibuprofen 15.72 μg/ml, alone or + Adriamycin 17 ng/ml) was 95.58 ± 8.50%. The “% Inhibition of GST” value ([1]; 1 mM) was 18.5%.
In the case of `CC(C(=O)O)c1cccc(C(=O)c2ccccc2)c1` (centres unmarked) [Ketoprofen], the “% Inhibition of GST” value ([1]; 1 mM) is reported as 11.2%.
For `c1ccc([C@H]2CN3CCSC3=N2)cc1` [Levamisole], the “% Inhibition of GST” value ([1]; 1 mM) was 0%.
With `Cc1cccc(Nc2ccccc2C(=O)O)c1C` [Mefenamic acid, mefenamic acid] the “% cell survival” value (A549 cell line; x) Mefenamic acid 2.30 μg/ml, alone or + Adriamycin 15 ng/ml) was 98.49 ± 7.66%, the “% cell survival” value (A549 cell line; x) Mefenamic acid 4.00 μg/ml, alone or + Adriamycin 15 ng/ml) was 95.38 ± 9.21% and the “% cell survival” value (A549 cell line; x) Mefenamic acid 7.90 μg/ml, alone or + Adriamycin 15 ng/ml) was 85.23 ± 7.80%.
`COc1ccc2cc([C@H](C)C(=O)O)ccc2c1` [Naproxen] was tested, and the “% Inhibition of GST” value ([1]; 1 mM) was 17% and the MRP-pump inhibitory activity (MRP pump) was “do not”.
`CN1C(C(=O)Nc2ccccn2)=C(O)c2ccccc2S1(=O)=O` [Piroxicam] was tested, and the inhibition at 302 µM (MRP pump; 0.302 mM) was 0%, the MRP-pump inhibitory activity (MRP pump) was “do not” and the “% Adriamycin content at 0 h” value (DLKP-7 cells; cells loaded with adriamycin 0.5 μg/ml 2 h, indomethacin 10 μg/ml, piroxicam 20 μg/ml, 0 h) was 100%. For the same compound, the “% Adriamycin content at 4 h” value (DLKP-7 cells; cells loaded with adriamycin 0.5 μg/ml 2 h, indomethacin 10 μg/ml, piroxicam 20 μg/ml, 4 h) was 67 ± 10%, the “level of adriamycin within the treated cells” value (DLKP-7 cells; during the 4 hours of the experiment) was “gradually decreased” and the “enhancement” value (MRP-specific substrates) was “negative”.
With `O.O.O.O=C([O-])[C@H]([O-])[C@@H]([O-])C(=O)[O-].O=C([O-])[C@H]([O-])[C@@H]([O-])C(=O)[O-].[K+].[K+].[Sb+3].[Sb+3]` [Potassium Antimonyl Tartrate, Potassium antimonyl tartrate] the “% cell survival” value (DLKP cell line; vii) Potassium Antimonyl Tartrate 1.5 μg/ml alone) was 39.98 ± 3.3%.
In the case of `CSc1ccc(/C=C2/C(C)=C(CC(=O)O)c3cc(F)ccc32)cc1` [Sulindac sulfide, sulindac sulfide], the “% cell survival” value (A549 cell line; xii) Sulindac sulfide 1.40 μg/ml, alone or + Adriamycin 15 ng/ml) is reported as 105.83 ± 6.50%, the “% cell survival” value (A549 cell line; xii) Sulindac sulfide 2.70 μg/ml, alone or + Adriamycin 15 ng/ml) is reported as 104.91 ± 5.57% and the “% cell survival” value (A549 cell line; xii) Sulindac sulfide 6.00 μg/ml, alone or + Adriamycin 15 ng/ml) is reported as 90.19 ± 9.63%.
In the case of `CC1=C(CC(=O)O)c2cc(F)ccc2/C1=C\c1ccc(S(C)(=O)=O)cc1` [Sulindac sulfone, sulindac sulfone], the “% cell survival” value (A549 cell line; xiii) Sulindac sulfone 4.50 μg/ml, alone or + Adriamycin 15 ng/ml) is reported as 101.87 ± 10.52%, the “% cell survival” value (A549 cell line; xiii) Sulindac sulfone 8.90 μg/ml, alone or + Adriamycin 15 ng/ml) is reported as 102.21 ± 8.88% and the “% cell survival” value (A549 cell line; xiii) Sulindac sulfone 19.50 μg/ml alone, or (printed 19.50 mg/ml) + Adriamycin 15 ng/ml) is reported as 76.77 ± 6.49%.
With `COc1cc([C@@H]2c3cc4c(cc3[C@@H](O[C@@H]3O[C@@H]5CO[C@@H](c6cccs6)O[C@H]5[C@H](O)[C@H]3O)[C@H]3COC(=O)[C@H]23)OCO4)cc(OC)c1O` [Teniposide, teniposide] the “% cell survival” value (DLKP cells; Teniposide 6.25 ng/ml alone) was 79.79 ± 0.97%.
With `Cc1cc(CC(=O)O)n(C)c1C(=O)c1ccc(Cl)cc1` [Zomepirac, zomepirac] the “% cell survival” value (A549 cell line; xv) Zomepirac 20.70 μg/ml, alone or + Adriamycin 15 ng/ml) was 96.79 ± 12.10%, the “% cell survival” value (A549 cell line; xv) Zomepirac 38.80 μg/ml, alone or + Adriamycin 15 ng/ml) was 94.89 ± 13.91% and the “% Inhibition of GST” value ([1]; 0.25 mM) was 56%. The “enhancement” value (MRP-specific substrates) was “have been found to enhance the toxicity of MRP-specific substrates”.
For `CCc1cccc2c3c([nH]c12)C(CC)(CC(=O)O)OCC3` (centres unmarked) [etodolac], the “enhancement” value (MRP-specific substrates) was “does not exhibit the enhanced cytotoxicity”.
